Experiment [1] has as its target T1, human toll like receptor 7 (hTLR7) (Homo sapiens, UniProt Q9NYK1).
T1 construct: host or cells: HEK293 (HEK-Blue hTLR7)
T1 sequence (Q9NYK1 27-1049): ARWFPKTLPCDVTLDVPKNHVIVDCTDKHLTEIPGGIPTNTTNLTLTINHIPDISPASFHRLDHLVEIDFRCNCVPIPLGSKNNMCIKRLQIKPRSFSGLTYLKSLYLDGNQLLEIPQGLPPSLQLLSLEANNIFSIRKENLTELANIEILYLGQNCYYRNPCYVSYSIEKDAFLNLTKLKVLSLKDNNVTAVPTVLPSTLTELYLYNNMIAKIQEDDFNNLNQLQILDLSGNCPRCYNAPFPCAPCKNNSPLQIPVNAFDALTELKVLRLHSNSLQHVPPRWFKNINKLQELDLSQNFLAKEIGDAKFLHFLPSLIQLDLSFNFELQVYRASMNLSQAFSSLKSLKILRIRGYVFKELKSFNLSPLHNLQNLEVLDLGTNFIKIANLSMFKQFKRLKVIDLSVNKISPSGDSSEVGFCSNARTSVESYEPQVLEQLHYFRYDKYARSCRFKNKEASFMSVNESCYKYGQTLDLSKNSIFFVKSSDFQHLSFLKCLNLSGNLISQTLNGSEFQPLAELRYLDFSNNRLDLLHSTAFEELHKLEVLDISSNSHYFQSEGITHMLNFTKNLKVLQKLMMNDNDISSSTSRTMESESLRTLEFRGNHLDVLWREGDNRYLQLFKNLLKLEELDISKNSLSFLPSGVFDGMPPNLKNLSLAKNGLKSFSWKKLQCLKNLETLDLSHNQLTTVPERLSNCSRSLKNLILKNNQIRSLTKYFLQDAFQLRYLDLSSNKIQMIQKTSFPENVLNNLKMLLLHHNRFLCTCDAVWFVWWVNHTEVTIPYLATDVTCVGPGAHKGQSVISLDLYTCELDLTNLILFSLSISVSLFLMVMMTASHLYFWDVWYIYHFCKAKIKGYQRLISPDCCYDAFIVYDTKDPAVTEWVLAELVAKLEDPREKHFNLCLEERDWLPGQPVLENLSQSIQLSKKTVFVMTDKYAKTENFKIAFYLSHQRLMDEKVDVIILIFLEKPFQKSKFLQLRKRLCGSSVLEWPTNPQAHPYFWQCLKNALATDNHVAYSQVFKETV
In words: hTLR7 in-vitro functional assay (HEK-Blue hTLR7 SEAP reporter). It is filed as cell-based. Particulars: HEK-Blue hTLR7 cells, overnight incubation. An excerpt: (§1) To determine the ability of test compounds to activate the human toll like receptor 7 (hTLR7) or human toll like receptor 8 (hTLR8), cell-based reporter systems were utilized. HEK293 cells stably overexpressing either hTLR7 or hTLR8 along with a reporter gene containing an optimized secreted embryonic alkaline phosphatase gene (SEAP), under the control of the IFN-b minimal promoter fused to five NF-kB and AP-1-binding sites, were obtained from Invivogen (HEK-Blue™ hTLR7, cat #Hkb-htlr7; HEK-Blue™ hTLR8, cat #Hkb-htlr8). Stimulation of hTLR7 or hTLR8 in these cells activates NF-kB and AP-1 and induces the production of SEAP which can be quantified using an alkaline phosphatase detection reagent.
(§2) On day one of the assay, compounds were prepared using 11-point half-log serial dilutions from a 10 mM DMSO stock solution and 50 nL was spotted into 384-well plates (PerkinElmer, cat #6007480). Positive and negative controls were also spotted within the assay plate and were used to determine percent effect during the analysis process. After resuspension in DMEM assay media containing FBS heat inactivated (10%), Glutamax (2 mM) and Penicillin/Streptomycin, 10,000 cells/20 ul/well were added to previously prepared compound plates. Plates were incubated overnight (16-20 hrs) at 37° C. in a 5% CO2 environment. Prewetted Microclime lids (Labcyte, LLS-0310) were used to prevent evaporation. On day two of the assay, QUANTI-Blue™ detection reagent was prepared by reconstituting QUANTI-Blue™ powder (InvivoGen, Rep-qb1) with 100 ml of sterile water and allowed to equilibrate to 37° C. for 15 minutes. 20 ul of QUANTI-Blue™ detection reagent was added to each well and plates were incubated at room temperature for 180 min. At the end of the incubation, plates were read on an Envision (Perkin Elmer) plate reader capturing absorbance at 650 nm.
(§3) Using Positive (tool compound) and Negative (DMSO) controls, the percent (%) effect was calculated for each sample using the following equation: […]
(§4) The % effect at each concentration of compound was calculated utilizing the ABase software suite (IBDS) and was relative to the amount of SEAP produced in the positive and negative control wells contained within each assay plate. The concentrations and % effect values for test compounds were fit using a 4-parameter logistic model in ABase and the concentration of compound that produced 50% response (EC50) was calculated.

In experiment [2] the target is T2, human toll like receptor 8 (hTLR8) (Homo sapiens, UniProt Q9NR97).
T2 construct: host or cells: HEK293 (HEK-Blue hTLR8)
T2 sequence (Q9NR97 27-1041): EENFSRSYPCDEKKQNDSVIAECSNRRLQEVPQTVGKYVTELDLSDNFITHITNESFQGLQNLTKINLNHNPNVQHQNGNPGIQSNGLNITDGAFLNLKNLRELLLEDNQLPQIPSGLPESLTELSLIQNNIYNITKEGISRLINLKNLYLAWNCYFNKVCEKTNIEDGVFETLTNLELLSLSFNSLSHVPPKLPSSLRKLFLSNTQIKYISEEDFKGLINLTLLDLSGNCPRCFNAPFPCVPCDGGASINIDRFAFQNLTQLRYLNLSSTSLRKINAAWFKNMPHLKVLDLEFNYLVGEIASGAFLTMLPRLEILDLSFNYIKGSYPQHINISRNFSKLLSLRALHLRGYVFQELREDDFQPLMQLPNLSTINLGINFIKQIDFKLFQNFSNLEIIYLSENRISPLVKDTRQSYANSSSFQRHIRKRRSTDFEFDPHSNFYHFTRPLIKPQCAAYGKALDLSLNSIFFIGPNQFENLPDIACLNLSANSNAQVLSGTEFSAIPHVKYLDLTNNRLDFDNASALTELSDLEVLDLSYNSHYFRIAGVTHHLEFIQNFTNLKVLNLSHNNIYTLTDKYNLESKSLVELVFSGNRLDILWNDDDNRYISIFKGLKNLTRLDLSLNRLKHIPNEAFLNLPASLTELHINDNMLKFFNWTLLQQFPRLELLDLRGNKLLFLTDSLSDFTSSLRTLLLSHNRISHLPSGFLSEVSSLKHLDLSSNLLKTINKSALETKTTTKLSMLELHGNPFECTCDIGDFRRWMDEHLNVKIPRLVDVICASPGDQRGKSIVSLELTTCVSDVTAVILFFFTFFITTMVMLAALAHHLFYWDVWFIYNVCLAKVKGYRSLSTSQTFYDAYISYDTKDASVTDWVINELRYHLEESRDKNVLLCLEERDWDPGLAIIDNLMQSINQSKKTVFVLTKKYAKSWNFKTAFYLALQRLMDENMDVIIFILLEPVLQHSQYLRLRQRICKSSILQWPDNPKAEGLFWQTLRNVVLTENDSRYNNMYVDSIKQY
Put plainly: hTLR8 in-vitro functional assay (HEK-Blue hTLR8 SEAP reporter). Particulars: HEK-Blue hTLR8 cells, overnight incubation. The class given is cell-based.
From the text: as §1, §2, §3, §4

Where only a bound is given, the exact number is not on record here.

Regarding `CCCCc1nc2c(N)nc3cc(CCCN4CCN(CCCOCCOCCOCCOCCOCCOCCOCCOCCOCCOCCOCCOCCOCCOCCOCCOCCOCCOCCOCCOCCNC(=O)O[C@H]5CC[C@@]6(C)C(=CC[C@H]7[C@@H]8CC[C@H]([C@H](C)CCCC(C)C)[C@@]8(C)CC[C@@H]76)C5)CC4)ccc3c2n1CC(C)(CO)CO` [Compound 7, (3beta)-cholest-5-en-3-yl {63-[4-(3-{4-amino-2-butyl-1-[3-hydroxy-2-(hydroxymethyl)-2-methylpropyl]-1H-imidazo[4,5-c]quinolin-7-yl}propyl)piperazin-1-yl]-3,6,9,12,15,18,21,24,27,30,33,36,39,42,45,48,51,54,57,60-icosaoxatrihexacont-1-yl}carbamate], the figures for the EC50 in experiment [1] and in experiment [2] were 140 nM and 14400 nM, respectively.
Consider `CCCCc1nc2c(N)nc3cc(CCCN4CCN(C(=O)CCOCCOCCOCCOCCOCCOCCOCCOCCOCCOCCOCCOCCNC(=O)CCOCCOCCOCCOCCNC(=O)O[C@H]5CC[C@@]6(C)C(=CC[C@H]7[C@@H]8CC[C@H]([C@H](C)CCCC(C)C)[C@@]8(C)CC[C@@H]76)C5)CC4)ccc3c2n1CC(C)(CO)CO` [Compound 6, (3beta,20R)-cholest-5-en-3-yl {55-[4-(3-{4-amino-2-butyl-1-[3-hydroxy-2-(hydroxymethyl)-2-methylpropyl]-1H-imidazo[4,5-c]quinolin-7-yl}propyl)piperazin-1-yl]-15,55-dioxo-3,6,9,12,19,22,25,28,31,34,37,40,43,46,49,52-hexadecaoxa-16-azapentapentacont-1-yl}carbamate], for which the values for the EC50 in experiment [1] and in experiment [2] were 78 nM and 5080 nM, respectively.
The like results for `CCCCc1nc2c(N)nc3cc(CCCN4CCN(CCCOCCOCCOCCOCCOCCOCCOCCOCCNC(=O)O[C@H]5CC[C@@]6(C)C(=CC[C@H]7[C@@H]8CC[C@H]([C@H](C)CCCC(C)C)[C@@]8(C)CC[C@@H]76)C5)CC4)ccc3c2n1CC(C)(CO)CO` [Compound 23, (20R)-cholest-5-en-3beta-yl {27-[4-(3-{4-amino-2-butyl-1-[3-hydroxy-2-(hydroxymethyl)-2-methylpropyl]-1H-imidazo[4,5-c]quinolin-7-yl}propyl)piperazin-1-yl]-3,6,9,12,15,18,21,24-octaoxaheptacosan-1-yl}carbamate] were, in that order, 1680 nM and 14900 nM.
Consider `CCCCc1nc2c(N)nc3cc(CCCN4CCN(CCCOCCOCCOCCOCCNC(=O)O[C@H]5CC[C@@]6(C)C(=CC[C@H]7[C@@H]8CC[C@H]([C@H](C)CCCC(C)C)[C@@]8(C)CC[C@@H]76)C5)CC4)ccc3c2n1CC(C)(CO)CO` [Compound 22, (20R)-cholest-5-en-3beta-yl {15-[4-(3-{4-amino-2-butyl-1-[3-hydroxy-2-(hydroxymethyl)-2-methylpropyl]-1H-imidazo[4,5-c]quinolin-7-yl}propyl)piperazin-1-yl]-3,6,9,12-tetraoxapentadecan-1-yl}carbamate], for which the results for the EC50 in experiment [1] and in experiment [2] were 1160 nM and 11700 nM, respectively.
Consider `CCCCc1nc2c(N)nc3cc(CCCN4CCN(CCCOCCOCCOCCOCCOCCOCCOCCOCCOCCOCCOCCOCCOCCOCCOCCOCCOCCOCCOCCOCCOCCOCCOCCOCCNC(=O)O[C@H]5CC[C@@]6(C)C(=CC[C@H]7[C@@H]8CC[C@H]([C@H](C)CCCC(C)C)[C@@]8(C)CC[C@@H]76)C5)CC4)ccc3c2n1CC(C)(CO)CO` [Compound 16, (20R)-cholest-5-en-3beta-yl {75-[4-(3-{4-amino-2-butyl-1-[3-hydroxy-2-(hydroxymethyl)-2-methylpropyl]-1H-imidazo[4,5-c]quinolin-7-yl}propyl)piperazin-1-yl]-3,6,9,12,15,18,21,24,27,30,33,36,39,42,45,48,51,54,57,60,63,66,69,72-tetracosaoxapentaheptacontan-1-yl}carbamate], for which the concentration giving a half-maximal response (EC50) in experiment [1] is 278 nM; in experiment [2] it was > 25000 nM.
As to `CCOCc1nc2c(N)nc3cc(CCCN4CCN(C(=O)CCOCCOCCOCCOCCOCCOCCOCCOCCOCCOCCOCCOCCOCCOCCOCCOCCOCCOCCOCCOCCOCCOCCOCCOCCNC(=O)CCOCCOCCOCCOCCNC(=O)O[C@H]5CC[C@@]6(C)C(=CC[C@H]7[C@@H]8CC[C@H]([C@H](C)CCCC(C)C)[C@@]8(C)CC[C@@H]76)C5)CC4)ccc3c2n1CC(C)(CO)CO` [Compound 5, (3beta)-cholest-5-en-3-yl {91-[4-(3-{4-amino-2-(ethoxymethyl)-1-[3-hydroxy-2-(hydroxymethyl)-2-methylpropyl]-1H-imidazo[4,5-c]quinolin-7-yl}propyl)piperazin-1-yl]-15,91-dioxo-3,6,9,12,19,22,25,28,31,34,37,40,43,46,49,52,55,58,61,64,67,70,73,76,79,82,85,88-octacosaoxa-16-azahennonacont-1-yl}carbamate], the figures for the EC50 in experiment [1] and in experiment [2] were 72 nM and 2300 nM, respectively.
Taken in the same sequence, the figures for `CCCCc1nc2c(N)nc3cc(CCCN4CCN(CCCOCCOCCOCCOCCOCCOCCOCCOCCOCCOCCOCCOCCNC(=O)O[C@H]5CC[C@@]6(C)C(=CC[C@H]7[C@@H]8CC[C@H]([C@H](C)CCCC(C)C)[C@@]8(C)CC[C@@H]76)C5)CC4)ccc3c2n1CC(C)(CO)CO` [Compound 21, (20R)-cholest-5-en-3beta-yl {39-[4-(3-{4-amino-2-butyl-1-[3-hydroxy-2-(hydroxymethyl)-2-methylpropyl]-1H-imidazo[4,5-c]quinolin-7-yl}propyl)piperazin-1-yl]-3,6,9,12,15,18,21,24,27,30,33,36-dodecaoxanonatriacontan-1-yl}carbamate] were 533 nM and > 25000 nM.

For orientation: EC50 means the midpoint of the concentration-response curve.

Values taken from US20250135006A1, “AMPHIPHILIC TLR7/8 ADJUVANTS AND USES THEREOF” (Pfizer Inc., priority 2023, published 2025).
